Source: publication PMC6847237 (2019)

What was measured:
[1] = tested on: (GCAGCAGC)2 (RNA, mismatch bulge abasic) GCAGCAGC; test: X-ray crystallography; settings: RNA 0.75 mM, RNA:ligand 1:2 mixed
[2] = tested on: (CAG)9 (5'-biotinylated, immobilized) (RNA, repeat) CAGCAGCAGCAGCAGCAGCAGCAGCAG; test: SPR single cycle kinetics; settings: 150 mM NaCl; 10 mM HEPES pH 7.4, 3 mM EDTA, 0.005% P20, 5% DMSO; 0.1-0.5 μM ligand
[3] = tested on: (CCG)9 (5'-biotinylated, immobilized) (RNA, repeat) CCGCCGCCGCCGCCGCCGCCGCCGCCG; test: SPR single cycle kinetics; settings: 150 mM NaCl; 10 mM HEPES pH 7.4, 3 mM EDTA, 0.005% P20, 5% DMSO; highest tested 0.5 μM
[4] = tested on: (CAG)9 (RNA, repeat) CAGCAGCAGCAGCAGCAGCAGCAGCAG; test: CD titration at 347.5 nm; settings: 100 mM NaCl, 10 mM sodium cacodylate pH 7.0, ambient temperature, RNA 2.5 μM, 1:2 binding isotherm
[5] = tested on: (UCAACAGUUGA)2 (RNA, mismatch bulge abasic) UCAACAGUUGA; test: UV melting at 260 nm, median method; settings: 100 mM NaCl; 10 mM sodium cacodylate pH 7.0, 2% DMSO; RNA 5 μM, CMBL3a 20 μM
[6] = tested on: (CGG)9 (5'-biotinylated, immobilized) (RNA, repeat) CGGCGGCGGCGGCGGCGGCGGCGGCGG; test: SPR single cycle kinetics; settings: 150 mM NaCl; 10 mM HEPES pH 7.4, 3 mM EDTA, 0.005% P20, 5% DMSO; highest tested 0.5 μM
[7] = tested on: GCAG(2′-SeCH3-C)AGC (RNA, mismatch bulge abasic, 2'-methylseleno cytidine at 5) GCAGCAGC; test: X-ray crystallography (SAD); settings: 5 mM MgCl2; TRIS pH 7.5, 30% PEG 400; RNA 0.75 mM, RNA:ligand 1:2 mixed

O=C1Nc2ccc3ccc(nc3n2)CNCc2ccc3ccc(nc3n2)NC(=O)OCCCNCCCO1
binding ([1]; 2 mM MgCl2, 5 mM hexamine cobalt chloride, MOPS pH 7.0, Tacsimate): yes

O=C1Nc2ccc3ccc(nc3n2)CNCc2ccc3ccc(nc3n2)NC(=O)OCC/C=C/CCO1
binding [2]: yes | binding [3]: no | apparent Kd [4]: 70.5 µM | binding [5]: yes | binding [6]: no | binding [7]: yes | binding ([1]; 10 mM MgCl2, 1 M Li2SO4, cacodylate pH 6.0): yes

O=C1Nc2ccc3ccc(nc3n2)CNCc2ccc3ccc(nc3n2)NC(=O)OCC/C=C\CCO1
binding ([1]; 20 mM magnesium acetate, 1.7 M ammonium sulfate, cacodylate pH 6.0): yes
